From ChEMBL document CHEMBL1201862, “PubChem BioAssay data set” (2004)
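Growth conditions: 96-well plates. Treatment: test compound, 48 hours, 5 concentrations. Analysis: linear interpolation between bracketing concentrations; unreached endpoints set to highest concentration. GI50 is the concentration that inhibits growth by half.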 Activity calls are given as the source filed them. No stated cut-off is given here; in the data, active = GI50 up to about 1.1 µM and inactive = higher.

Columns and labels:
Assay in all cases: NCI tumour cell line growth inhibition, 48 h
[1] = tested on: 786-0
[2] = tested on: A498
[3] = tested on: A549
[4] = tested on: ACHN
[5] = tested on: CAKI-1
[6] = tested on: CCRF-CEM
[7] = tested on: COLO 205
[8] = tested on: DU-145
[9] = tested on: EKVX
[10] = tested on: HCC 2998
[11] = tested on: HCT-116
[12] = tested on: HCT-15
[13] = tested on: HL-60
[14] = tested on: HOP-62
[15] = tested on: HOP-92
[16] = tested on: HT-29
[17] = tested on: Hs-578T
[18] = tested on: IGROV-1
[19] = tested on: K562
[20] = tested on: KM12
[21] = tested on: LOX IMVI
[22] = tested on: M14
[23] = tested on: MDA-MB-231
[24] = tested on: MDA-MB-435
[25] = tested on: MDA-N
[26] = tested on: MOLT-4
[27] = tested on: Malme-3M
[28] = tested on: NCI-H226
[29] = tested on: NCI-H23
[30] = tested on: NCI-H460
[31] = tested on: NCI-H522
[32] = tested on: NCI/ADR-RES
[33] = tested on: OVCAR-3
[34] = tested on: OVCAR-4
[35] = tested on: OVCAR-5
[36] = tested on: OVCAR-8
[37] = tested on: PC-3
[38] = tested on: RPMI-8226
[39] = tested on: RXF 393
[40] = tested on: SF-268
[41] = tested on: SF-295
[42] = tested on: SF-539
[43] = tested on: SK-MEL-28
[44] = tested on: SK-MEL-2
[45] = tested on: SK-MEL-5
[46] = tested on: SK-OV-3
[47] = tested on: SN12C
[48] = tested on: SNB-19
[49] = tested on: SNB-75
[50] = tested on: SR
[51] = tested on: SW-620
[52] = tested on: T47D
[53] = tested on: TK-10
[54] = tested on: U-251
[55] = tested on: UACC-257
[56] = tested on: UACC-62
[57] = tested on: UO-31
[58] = tested on: MCF7

Measured: GI50

CCCCC1c2c([nH]c3ccccc23)C2C(=O)N(c3ccc(OC)cc3)C(=O)C2C1CCC (configuration not stated)
inactive: [1] 4.39 µM | [2] 3.4 µM | [3] 5.13 µM | [4] 5.7 µM | [5] 1.23 µM | [6] 3.66 µM | [7] 2.59 µM | [8] 5.12 µM | [9] 3.56 µM | [10] 3.47 µM | [11] 3.01 µM | [13] 2.96 µM | [14] 3.69 µM | [15] 3.03 µM | [16] 3.13 µM | [17] 1.87 µM | [18] 4.56 µM | [19] 3.29 µM | [20] 2.1 µM | [21] > 10 µM | [22] 3.06 µM | [23] 2.58 µM | [24] 2.24 µM | [25] 3.02 µM | [26] 2.74 µM | [27] 4.44 µM | [28] 5.02 µM | [29] 3.89 µM | [30] 4.19 µM | [31] 6.28 µM | [32] 2.96 µM | [33] 3.36 µM | [34] 4.82 µM | [35] > 10 µM | [36] 2.65 µM | [37] 2.6 µM | [38] 4.61 µM | [39] 3.39 µM | [40] 4.35 µM | [41] > 10 µM | [42] 2.24 µM | [43] 5.4 µM | [44] 2.39 µM | [45] 5.38 µM | [46] > 10 µM | [47] 2.18 µM | [48] 8.59 µM | [49] 2.55 µM | [50] 4.75 µM | [51] 3.95 µM | [52] > 10 µM | [53] 4.37 µM | [54] 8.71 µM | [55] 3.61 µM | [56] 2.29 µM | [57] 4.45 µM
3.6 µM: [12]

CCOC(=O)C1(C(=O)OCC)CCC(C(OC)OC)C(CC(=O)OC)C1 (configuration not stated)
inactive: [1] > 10 µM | [3] > 10 µM | [4] > 10 µM | [5] > 10 µM | [6] > 10 µM | [7] > 10 µM | [13] > 10 µM | [14] > 10 µM | [15] > 10 µM | [18] > 10 µM | [19] > 10 µM | [22] > 10 µM | [58] > 10 µM | [24] > 10 µM | [26] > 10 µM | [27] > 10 µM | [29] > 10 µM | [30] > 10 µM | [32] > 10 µM | [34] > 10 µM | [38] > 10 µM | [39] > 10 µM | [40] > 10 µM | [43] > 10 µM | [44] > 10 µM | [45] > 10 µM | [46] > 10 µM | [49] > 10 µM | [50] > 10 µM | [51] > 10 µM | [52] > 10 µM | [54] > 10 µM | [56] > 10 µM

c1ccc2c(Nc3ccc(Oc4ccc(Nc5c6ccccc6nc6ccccc56)cc4)cc3)c3ccccc3nc2c1
inactive: [2] 1.85 µM | [5] 1.63 µM | [9] 1.5 µM | [15] 1.83 µM | [17] 2.21 µM | [27] 1.73 µM | [28] 1.72 µM | [37] 1.6 µM | [39] 2.4 µM | [40] 1.57 µM | [41] 1.67 µM | [44] 1.96 µM | [45] 1.57 µM | [46] 1.72 µM | [53] 1.19 µM
active: [1] 0.0504 µM | [7] 0.815 µM | [8] 0.277 µM | [10] < 0.01 µM | [13] 0.547 µM | [21] 0.792 µM | [22] 0.0925 µM | [58] 0.0942 µM | [24] 0.0647 µM | [29] 0.181 µM | [30] 0.618 µM | [31] 0.665 µM | [32] 0.0655 µM | [33] 0.0659 µM | [34] 0.0668 µM | [35] 0.528 µM | [36] 0.139 µM | [43] 0.102 µM | [48] 0.299 µM | [49] 0.436 µM | [51] 0.0649 µM | [52] 0.556 µM
